27 compounds from patent US20250161307A1, “PYRAZOLOPYRIMIDINES AS MODULATORS OF SPERMINE OXIDASE” (Janssen Pharmaceutica NV, priority 2022, published 2025) can be followed below.

Where a name gives a salt, the structure may show the parent alone. Bounds are passed on as bounds.

One test deals with SMOX (Homo sapiens (Human), UniProt Q9NWM0). The test can be described thus: Human SMOX assay (HyPerBlu chemiluminescent detection of hydrogen peroxide). Format: biochemical. The settings on record: 2.5 nM full length hSMOX, spermine substrate, 1 h at room temperature, luminescence read; read-out: SMOx_IC50. How it is done:
(§1) The direct detection of hydrogen peroxide produced from the enzymatic reaction of hSMOX or hPAOX in a biochemical assay format was measured using HyPerBlu (Lumigen, Southfield, MI), a small molecule boronate probe that reacts with hydrogen peroxide to generate a chemiluminescent signal. Inhibition of hSMOX or hPAOX enzyme results in a decrease in luminescence.
Test compounds (75 nL) dissolved in DMSO were added to a 384-well white assay plate (Greiner Bio-one, catalog #784075) using an ECHO Acoustic Dispenser (Labcyte). Each compound was serially diluted 3-fold in DMSO to prepare an 11-point dose response curve (columns 1-22). Column 23 and 24 contained 75 nL of 2 mM chlorhexidine and DMSO, respectively, to represent the 100% inhibited versus the neutral control reactions.
Subsequently, 3 μL/well of the substrate solution prepared in assay buffer (10 mM Hepes, pH 7.4, 150 mM NaCl, 1 mM EGTA, 0.01% Pluronic F-127, 0.05% ovalbumin) was dispensed into the assay plate followed by 3 μL/well of full length hSMOX enzyme with an N-terminal His tag from E. coli prepared in assay buffer to initiate the reactions. After a 1 h incubation at room temperature, 6 μL/well of HyPerBlu was added. After a 30 min incubation, the hydrogen peroxide product generated from the hSMOX reactions was measured using an endpoint luminescence read on the PHERAStar FS/FSX microplate reader (BMG LABTECH).
The final assay conditions included 10 mM Hepes, pH 7.4, 150 mM NaCl, 1 mM EGTA, 0.01% Pluronic F-127, 0.05% ovalbumin, 2.5 nM hSMOX, 30 µM spermine, and 1.25% DMSO.
Dose-response curves were fit and compound IC50 values were determined using Genedata Screener (Genedata AG).

The next test has as its target hPAOX (Homo sapiens (Human), UniProt Q6QHF9). Briefly: Human PAOX assay (HyPerBlu chemiluminescent detection of hydrogen peroxide). Format: biochemical. The settings on record: 60 pM recombinant PAOX, 20 μM N-acetylspermine substrate. How it is done:
as §1
The hPAOX assay was run and the data analyzed similarly to the hSMOX assay described above, except the reactions contained 60 pM recombinant PAOX with an N-terminal His tag expressed from sf9 insect cells and used 20 μM N-acetylspermine as the substrate.

Chain of hPAOX (Q6QHF9 whole entry): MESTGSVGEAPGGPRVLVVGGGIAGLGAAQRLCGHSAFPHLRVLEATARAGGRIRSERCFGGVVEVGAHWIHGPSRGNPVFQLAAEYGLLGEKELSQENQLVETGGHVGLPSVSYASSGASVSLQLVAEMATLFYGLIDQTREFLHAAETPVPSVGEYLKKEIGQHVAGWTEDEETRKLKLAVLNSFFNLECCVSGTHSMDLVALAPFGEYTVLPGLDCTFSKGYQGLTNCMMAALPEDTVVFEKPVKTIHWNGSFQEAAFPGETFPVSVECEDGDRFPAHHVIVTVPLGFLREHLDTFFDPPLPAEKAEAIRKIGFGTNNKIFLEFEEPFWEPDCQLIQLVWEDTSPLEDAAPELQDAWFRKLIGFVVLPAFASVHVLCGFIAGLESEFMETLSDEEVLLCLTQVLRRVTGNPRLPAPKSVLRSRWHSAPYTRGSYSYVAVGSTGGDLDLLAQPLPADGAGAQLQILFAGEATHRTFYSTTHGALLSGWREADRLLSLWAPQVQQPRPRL
Chain of SMOX (Q9NWM0 whole entry): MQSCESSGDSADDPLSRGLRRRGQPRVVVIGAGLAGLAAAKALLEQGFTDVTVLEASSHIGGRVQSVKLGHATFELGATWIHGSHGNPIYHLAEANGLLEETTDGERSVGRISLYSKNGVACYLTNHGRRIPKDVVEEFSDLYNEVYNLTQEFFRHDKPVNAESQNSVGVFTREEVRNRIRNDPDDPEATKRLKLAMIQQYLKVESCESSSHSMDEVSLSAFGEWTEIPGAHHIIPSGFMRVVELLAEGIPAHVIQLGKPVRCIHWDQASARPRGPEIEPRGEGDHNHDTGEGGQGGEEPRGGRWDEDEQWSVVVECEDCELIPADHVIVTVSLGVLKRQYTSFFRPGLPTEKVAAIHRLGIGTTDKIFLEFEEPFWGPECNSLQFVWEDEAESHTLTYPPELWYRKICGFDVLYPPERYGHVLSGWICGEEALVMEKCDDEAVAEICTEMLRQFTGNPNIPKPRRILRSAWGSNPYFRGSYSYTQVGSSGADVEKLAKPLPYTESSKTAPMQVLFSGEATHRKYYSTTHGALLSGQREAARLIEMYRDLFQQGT

For the compound `Cc1c(C(=O)NC2CN(C)C2)nn2c(-c3ccccc3)cc(-c3ccccc3)nc12` [Example 50, 3-Methyl-N-(1-methylazetidin-3-yl)-5,7-diphenylpyrazolo[1,5-a]pyrimidine-2-carboxamide], the IC50 at SMOX was 110 nM; on hPAOX it was 3130 nM.

Consider `Cc1c(C(=O)NC2CCN(C)C2)nn2c(-c3ccccc3)cc(-c3ccccc3)nc12` (stereo not drawn) [Example 51, 3-Methyl-N-(1-methylpyrrolidin-3-yl)-5,7-diphenylpyrazolo[1,5-a]pyrimidine-2-carboxamide], for which the IC50 at SMOX stood at 821 nM; at hPAOX, 7710 nM.

As to `CN1CC(NC(=O)c2nn3c(-c4ccccc4)cc(-c4ccccc4)nc3c2F)C1` [Example 52, 3-Fluoro-N-(1-methylazetidin-3-yl)-5,7-diphenylpyrazolo[1,5-a]pyrimidine-2-carboxamide], the IC50 at SMOX is 215 nM; on hPAOX, 1920 nM.

With `CN1CC(NC(=O)c2nn3c(-c4ccccc4)cc(-c4ccccc4)nc3c2C#N)C1` [Example 53, 3-Cyano-N-(1-methylazetidin-3-yl)-5,7-diphenylpyrazolo[1,5-a]pyrimidine-2-carboxamide], the IC50 on SMOX is 273 nM; at hPAOX, 13300 nM.

Consider `Cc1c(C(=O)NCC2(C)CCN(C)C2)nn2c(-c3ccccc3)cc(-c3ccccc3)nc12` (stereo not drawn) [Example 54, N-((1,3-Dimethylpyrrolidin-3-yl)methyl)-3-methyl-5,7-diphenylpyrazolo[1,5-a]pyrimidine-2-carboxamide], for which the results for the IC50 on SMOX and on hPAOX were 1490 nM and 30300 nM, respectively.

Take `CC1C(NC(=O)c2cc3nc(-c4ccccc4)cc(-c4ccccc4)n3n2)CN1C` (stereo not drawn) [Example 55, N-(1,2-Dimethylazetidin-3-yl)-5,7-diphenylpyrazolo[1,5-a]pyrimidine-2-carboxamide]: the IC50 at SMOX worked out at 593 nM; on hPAOX, 6530 nM.

In the case of `O=C(NCCCn1ccnc1)c1cc2nc(-c3ccccc3)cc(N3CCC3)n2n1` [Example 56, N-(3-(1H-Imidazol-1-yl)propyl)-7-(azetidin-1-yl)-5-phenylpyrazolo[1,5-a]pyrimidine-2-carboxamide], the IC50 amounted to 874 nM on SMOX and 3730 nM on hPAOX.

For the compound `O=C(NCCCn1ccnc1)c1cc2nc(-c3ccccc3)cc(N3CCOCC3)n2n1` [Example 59, N-(3-(1H-Imidazol-1-yl)propyl)-7-morpholino-5-phenylpyrazolo[1,5-a]pyrimidine-2-carboxamide], the IC50 turned out to be 2880 nM at SMOX and 5710 nM at hPAOX.

With `CN1CCN(c2cc(-c3ccccc3)nc3cc(C(=O)NCCCn4ccnc4)nn23)CC1` [Example 60, N-(3-(1H-Imidazol-1-yl)propyl)-7-(4-methylpiperazin-1-yl)-5-phenylpyrazolo[1,5-a]pyrimidine-2-carboxamide], the IC50 is above 31200 nM on SMOX and 24800 nM at hPAOX.

With `O=C(NCCCn1ccnc1)c1cc2nc(-c3ccccc3)cc(N3CC4CC4C3)n2n1` (stereo not drawn) [Example 61, N-(3-(1H-Imidazol-1-yl)propyl)-7-(3-azabicyclo[3.1.0]hexan-3-yl)-5-phenylpyrazolo[1,5-a]pyrimidine-2-carboxamide], the IC50 at SMOX worked out at 486 nM; at hPAOX, 3930 nM.

Regarding `O=C(NCCCn1ccnc1)c1cc2nc(-c3ccccc3)cc(NC3CCC3)n2n1` [Example 64, N-(3-(1H-Imidazol-1-yl)propyl)-7-(cyclobutylamino)-5-phenylpyrazolo[1,5-a]pyrimidine-2-carboxamide], the results for the IC50 on SMOX and at hPAOX were 779 nM and 1460 nM, respectively.

For the compound `O=C(NCCCn1ccnc1)c1cc2nc(-c3ccccc3)cc(NC3CCCC3)n2n1` [Example 65, N-(3-(1H-imidazol-1-yl)propyl)-7-(cyclopentylamino)-5-phenylpyrazolo[1,5-a]pyrimidine-2-carboxamide], the results for the IC50 on SMOX and at hPAOX were 595 nM and 2450 nM, respectively.

`O=C(NCCCn1ccnc1)c1cc2nc(-c3ccccc3)cc(N3CCCC3)n2n1` [Example 66, N-(3-(1H-imidazol-1-yl)propyl)-5-phenyl-7-(pyrrolidin-1-yl)pyrazolo[1,5-a]pyrimidine-2-carboxamide]: the results for the IC50 on SMOX and on hPAOX were 395 nM and 2500 nM, respectively.

Consider `CN1CC(NC(=O)c2cc3nc(-c4ccccc4)cc(N4CCC[C@@H](O)C4)n3n2)C1` [Example 67, (R)-7-(3-hydroxypiperidin-1-yl)-N-(1-methylazetidin-3-yl)-5-phenylpyrazolo[1,5-a]pyrimidine-2-carboxamide], for which the IC50 on SMOX is 177 nM; at hPAOX, 3600 nM.

Consider `CN(C)CCCNC(=O)c1cc2nc(-c3ccccc3)cc(N3CCCCC3)n2n1` [Example 70, N-(3-(dimethylamino)propyl)-5-phenyl-7-(piperidin-1-yl)pyrazolo[1,5-a]pyrimidine-2-carboxamide], for which the IC50 on SMOX stood at 930 nM; on hPAOX, 3360 nM.

Consider `CN1CCC(NC(=O)c2cc3nc(-c4ccccc4)cc(N4CCCCC4)n3n2)C1` (stereo not drawn) [Example 71, N-(1-methylpyrrolidin-3-yl)-5-phenyl-7-(piperidin-1-yl)pyrazolo[1,5-a]pyrimidine-2-carboxamide trifluoroacetate], for which the values for the IC50 on SMOX and on hPAOX were 988 nM and 5360 nM, respectively.

On to `CN1CCC(NC(=O)c2cc3nc(-c4ccccc4)cc(N4CCCCC4)n3n2)CC1` [Example 74, N-(1-methylpiperidin-4-yl)-5-phenyl-7-(piperidin-1-yl)pyrazolo[1,5-a]pyrimidine-2-carboxamide], for which the IC50 worked out at 17700 nM at SMOX and 9830 nM at hPAOX.

For the compound `CC(C)Oc1cc(-c2ccccc2)nc2cc(C(=O)NC3CN(C)C3)nn12` [Example 75, 7-isopropoxy-N-(1-methylazetidin-3-yl)-5-phenylpyrazolo[1,5-a]pyrimidine-2-carboxamide], the IC50 came out at 737 nM at SMOX and 26700 nM at hPAOX.

Consider `CN1CC(NC(=O)c2cc3nc(-c4ccccc4)cc(Oc4ccccc4)n3n2)C1` [Example 76, N-(1-methylazetidin-3-yl)-7-phenoxy-5-phenylpyrazolo[1,5-a]pyrimidine-2-carboxamide], for which the IC50 on SMOX was determined as 725 nM; on hPAOX, 5370 nM.

On to `CC(=O)Nc1cccc(-c2cc(-c3ccccc3)nc3cc(C(=O)NCCCn4ccnc4)nn23)c1` [Example 77, N-(3-(1H-imidazol-1-yl)propyl)-7-(3-acetamidophenyl)-5-phenylpyrazolo[1,5-a]pyrimidine-2-carboxamide], for which the IC50 was 519 nM on SMOX and 544 nM on hPAOX.

For `COc1ccccc1-c1cc(-c2ccccc2)nc2cc(C(=O)NCCCn3ccnc3)nn12` [Example 80, N-(3-(1H-imidazol-1-yl)propyl)-7-(2-methoxyphenyl)-5-phenylpyrazolo[1,5-a]pyrimidine-2-carboxamide], the IC50 stood at 285 nM at SMOX and 289 nM at hPAOX.

In the case of `COc1cccc(-c2cc(-c3ccccc3)nc3cc(C(=O)NCCCn4ccnc4)nn23)c1` [Example 82, N-(3-(1H-imidazol-1-yl)propyl)-7-(3-methoxyphenyl)-5-phenylpyrazolo[1,5-a]pyrimidine-2-carboxamide], the IC50 on SMOX was found to be 256 nM; at hPAOX, 291 nM.

As for `Cc1ccc(-c2cc(-c3ccccc3)nc3cc(C(=O)NCCCn4ccnc4)nn23)cc1` [Example 83, N-(3-(1H-imidazol-1-yl)propyl)-5-phenyl-7-(p-tolyl)pyrazolo[1,5-a]pyrimidine-2-carboxamide], the IC50 at SMOX was found to be 681 nM; on hPAOX, 818 nM.

As to `O=C(NCCCn1ccnc1)c1cc2nc(-c3ccccc3)cc(-c3ccc4nonc4c3)n2n1` [Example 84, N-(3-(1H-imidazol-1-yl)propyl)-7-(benzo[c][1,2,5]oxadiazol-5-yl)-5-phenylpyrazolo[1,5-a]pyrimidine-2-carboxamide], the IC50 at SMOX stood at 330 nM; on hPAOX, 1310 nM.

On to `Cn1ccc(-c2cc(-c3ccccc3)nc3cc(C(=O)NCCCn4ccnc4)nn23)n1` [Example 85, N-(3-(1H-imidazol-1-yl)propyl)-7-(1-methyl-1H-pyrazol-3-yl)-5-phenylpyrazolo[1,5-a]pyrimidine-2-carboxamide], for which the IC50 on SMOX came out at 812 nM; at hPAOX, 2370 nM.

Take `O=C(NCCCn1ccnc1)c1cc2nc(-c3ccccc3)cc(-c3cccc(O)c3)n2n1` [Example 87, N-(3-(1H-imidazol-1-yl)propyl)-7-(3-hydroxyphenyl)-5-phenylpyrazolo[1,5-a]pyrimidine-2-carboxamide]: the figures for the IC50 on SMOX and on hPAOX were 303 nM and 387 nM, respectively.

On to `CN1CC(NC(=O)c2cc3nc(-c4ccccc4)cc(-c4ncccn4)n3n2)C1` [Example 93, N-(1-methylazetidin-3-yl)-5-phenyl-7-(pyrimidin-2-yl)pyrazolo[1,5-a]pyrimidine-2-carboxamide], for which the IC50 is 996 nM on SMOX and 643 nM at hPAOX.
